Here are results for ten compounds from ChEMBL document CHEMBL1201862, “PubChem BioAssay data set” (2004).

Some test systems named below: Hs-578T; CCRF-CEM; IGROV-1; SNB-75; MDA-N; LOX IMVI; HOP-62; M14; SF-268; OVCAR-4; MCF7; NCI-H522; A498; SK-MEL-2; PC-3; NCI-H23; T47D; RXF 393; 786-0; MDA-MB-435.
Test in all cases: NCI-60 cell line screen, 48 h

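A five-concentration, 48-hour dose response in 96-well plates underlies each endpoint, interpolated linearly between surrounding concentrations. Abbreviation: GI50, concentration required for 50% inhibition of growth.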 The source made the active and inactive calls. Cut-off read from the data, not from the text of the source: active = GI50 up to about 1.1 µM and inactive = higher.

With `O=C(Nc1cc2cc([N+](=O)[O-])ccc2oc1=O)c1cccs1`, the GI50 with Hs-578T is 30.8 µM (inactive); in the assay on CCRF-CEM it was 11.3 µM (inactive); in the assay on IGROV-1, 34.4 µM (inactive); with SNB-75, 2.78 µM (inactive); in the assay with MDA-N, 46.1 µM (inactive); in the assay with LOX IMVI it was 20.3 µM (inactive). Further, the GI50 in the assay with HOP-62 was 28.8 µM (inactive); in the assay with M14, 58.7 µM (inactive); in the assay with SF-268 it was 33.2 µM (inactive); in the assay with OVCAR-4, 43.6 µM (inactive); with MCF7, 19.6 µM (inactive); in the assay with NCI-H522, 24.5 µM (inactive). The GI50 was > 100 µM (inactive) with A498; 72.9 µM (inactive) in the assay on SK-MEL-2; 37.8 µM (inactive) in the assay on PC-3; > 10 µM (inactive) in the assay on NCI-H23; 38.5 µM (inactive) in the assay with T47D; 4.86 µM (inactive) in the assay with RXF 393. For the same compound, the GI50 in the assay with 786-0 is 89.5 µM (inactive); in the assay with MDA-MB-435, 25.2 µM (inactive).
On to `COc1cc2c(cc1OC)C1Cc3ccccc3CN1CCC2` (stereo not given), for which the GI50 in the assay on Hs-578T is 93.1 µM (inactive); in the assay with CCRF-CEM it was 46.9 µM (inactive); in the assay with IGROV-1 it was > 100 µM (inactive); in the assay on SNB-75, 37.6 µM (inactive); with MDA-N it was 45 µM (inactive); in the assay on LOX IMVI it was > 100 µM (inactive). The GI50 in the assay on HOP-62 was > 100 µM (inactive); in the assay on M14, 93.5 µM (inactive); in the assay with SF-268, > 100 µM (inactive); with OVCAR-4, 88.3 µM (inactive); in the assay with MCF7, > 100 µM (inactive); in the assay with NCI-H522 it was > 100 µM (inactive). Besides, the GI50 is 97.7 µM (inactive) in the assay with A498; > 100 µM (inactive) with SK-MEL-2; > 100 µM (inactive) with PC-3; > 100 µM (inactive) with NCI-H23; 63.7 µM (inactive) with T47D; > 100 µM (inactive) with RXF 393. Also, the GI50 is > 100 µM (inactive) with 786-0 and 47.6 µM (inactive) in the assay with MDA-MB-435.
Turning to `CC(=O)NC1CONC1=O` (stereo not given), the GI50 with Hs-578T, with CCRF-CEM, in the assay on IGROV-1, in the assay on SNB-75, with MDA-N and in the assay on LOX IMVI was > 100 µM (inactive) in each case. The GI50 with HOP-62, with M14, in the assay on SF-268, in the assay with OVCAR-4, with MCF7 and with NCI-H522 was > 100 µM (inactive) each time. Besides, the GI50 in the assay on A498, with SK-MEL-2, in the assay on PC-3, in the assay with NCI-H23, in the assay on T47D and with RXF 393 was > 100 µM (inactive) throughout. Further, the GI50 in the assay with 786-0 and in the assay on MDA-MB-435 was > 100 µM (inactive) throughout.
Regarding `COc1ccc(/C=C/C(=O)Oc2ccccc2OC)cc1`, the GI50 was 41.7 µM (inactive) with Hs-578T; 0.336 µM (active) in the assay with CCRF-CEM; 5.2 µM (inactive) in the assay on IGROV-1; 27.2 µM (inactive) in the assay on SNB-75; 36.4 µM (inactive) in the assay with MDA-N; 29.9 µM (inactive) in the assay on LOX IMVI. Moreover, the GI50 in the assay with HOP-62 is 8 µM (inactive); in the assay with M14, 30.6 µM (inactive); with SF-268, 1.81 µM (inactive); with OVCAR-4 it was 9.59 µM (inactive); in the assay on MCF7, 44.4 µM (inactive); in the assay with NCI-H522, 20.3 µM (inactive). For the same compound, the GI50 in the assay on A498 was > 100 µM (inactive); in the assay with SK-MEL-2, 39 µM (inactive); with PC-3, 44.4 µM (inactive); in the assay with NCI-H23, 33 µM (inactive); in the assay with T47D, 31.5 µM (inactive); in the assay with RXF 393, > 51.5 µM (inactive). The GI50 with 786-0 was 14 µM (inactive); in the assay with MDA-MB-435, 40.6 µM (inactive).
Turning to `CC(=O)OC1=CC2=CC[C@H]3[C@@H]4CCC(=O)[C@@]4(C)CC(=O)[C@]3(S)[C@@]2(C)CC1`, the GI50 in the assay on Hs-578T is 25.1 µM (inactive); with CCRF-CEM it was 29 µM (inactive); with IGROV-1, 27 µM (inactive); in the assay with SNB-75, 40.5 µM (inactive); in the assay on MDA-N it was 31.7 µM (inactive); in the assay on LOX IMVI, 18.8 µM (inactive). For the same compound, the GI50 in the assay on HOP-62 was 38.9 µM (inactive); in the assay on M14 it was 36.9 µM (inactive); in the assay on SF-268, 26.7 µM (inactive); with OVCAR-4, 57.8 µM (inactive); in the assay with MCF7, 30.6 µM (inactive); with NCI-H522, 20 µM (inactive). For the same compound, the GI50 in the assay on A498 is 41.1 µM (inactive); in the assay on SK-MEL-2, 47.1 µM (inactive); in the assay on PC-3 it was 32.9 µM (inactive); in the assay on NCI-H23, 36.6 µM (inactive); in the assay on T47D, 34.8 µM (inactive); with RXF 393 it was 18.7 µM (inactive). The GI50 in the assay with 786-0 was 27.8 µM (inactive); in the assay with MDA-MB-435, 30.7 µM (inactive).
With `COC(=O)C1(C(=O)OC)CC2=C(S(=O)(=O)c3ccccc3)C[C@H](C#N)[C@H]2C1`, the GI50 was > 100 µM (inactive) with Hs-578T; > 100 µM (inactive) in the assay with CCRF-CEM; 44.6 µM (inactive) in the assay with IGROV-1; > 100 µM (inactive) with SNB-75; 79.4 µM (inactive) in the assay with MDA-N; > 100 µM (inactive) with LOX IMVI. Further, the GI50 with HOP-62 was > 100 µM (inactive); in the assay on M14, > 100 µM (inactive); in the assay with SF-268, > 100 µM (inactive); in the assay on OVCAR-4, > 100 µM (inactive); in the assay on MCF7 it was 24 µM (inactive); with NCI-H522, 46.3 µM (inactive). The GI50 is > 100 µM (inactive) in the assay with A498; > 100 µM (inactive) in the assay with SK-MEL-2; > 100 µM (inactive) in the assay on PC-3; > 100 µM (inactive) in the assay on NCI-H23; 57.5 µM (inactive) with T47D; > 100 µM (inactive) in the assay with RXF 393. Further, the results for the GI50 in the assay with 786-0 and with MDA-MB-435 were > 100 µM (inactive) and 49.1 µM (inactive), respectively.
`COc1cc(C2c3cc4c(cc3OC3(OC)COC(=O)C23)OCO4)cc(OC)c1OC` (stereo not given): the GI50 with Hs-578T was 0.355 µM (active); with CCRF-CEM, 0.305 µM (active); with IGROV-1 it was 0.425 µM (active); in the assay with SNB-75 it was 0.311 µM (active); in the assay on MDA-N, 0.075 µM (active); in the assay on LOX IMVI, 0.188 µM (active). Further, the GI50 was 0.48 µM (active) in the assay with HOP-62; 0.272 µM (active) in the assay with M14; 0.514 µM (active) in the assay with SF-268; 4.85 µM (inactive) in the assay with OVCAR-4; 0.292 µM (active) with MCF7; 0.18 µM (active) with NCI-H522. In addition, the GI50 in the assay on A498 is 0.281 µM (active); with SK-MEL-2 it was 0.771 µM (active); in the assay with PC-3 it was 0.285 µM (active); in the assay on NCI-H23, 0.389 µM (active); with T47D, > 100 µM (inactive); in the assay with RXF 393 it was 0.142 µM (active). Further, the GI50 was 0.353 µM (active) in the assay on 786-0 and 0.0863 µM (active) in the assay with MDA-MB-435.
Regarding `CNC(=O)Nc1cc2c3c(c1)CCCN3CCC2`, the GI50 with Hs-578T, with CCRF-CEM, with IGROV-1, in the assay on SNB-75, in the assay with MDA-N and in the assay on LOX IMVI was > 10 µM (inactive) throughout. Besides, the GI50 in the assay with HOP-62, in the assay on M14, in the assay with SF-268, in the assay on OVCAR-4, with MCF7 and in the assay on NCI-H522 was > 10 µM (inactive) throughout. For the same compound, the GI50 in the assay with A498, in the assay with SK-MEL-2, with PC-3, in the assay with NCI-H23, in the assay on T47D and in the assay with RXF 393 was > 10 µM (inactive) throughout. Moreover, the GI50 with 786-0 and with MDA-MB-435 was > 10 µM (inactive) throughout.
For the compound `NC(=O)c1cccc(/N=c2\oc3ccc(Br)cc3cc2-c2nc3ccccc3[nH]2)c1`, the GI50 in the assay on Hs-578T was 27.4 µM (inactive); with CCRF-CEM, 2.61 µM (inactive); in the assay on IGROV-1, 17.9 µM (inactive); with SNB-75, 1.47 µM (inactive); in the assay on MDA-N, 17.7 µM (inactive); in the assay with LOX IMVI, 16.1 µM (inactive). The GI50 in the assay on HOP-62 is 16.2 µM (inactive); in the assay on M14 it was 15.7 µM (inactive); in the assay with SF-268, 15.1 µM (inactive); in the assay on OVCAR-4 it was 18.8 µM (inactive); with MCF7, 12.9 µM (inactive); with NCI-H522, 22.1 µM (inactive). Besides, the GI50 is 18.4 µM (inactive) with A498; 19.9 µM (inactive) with SK-MEL-2; 14.3 µM (inactive) in the assay on PC-3; 16 µM (inactive) with NCI-H23; 10 µM (inactive) in the assay on T47D; 22 µM (inactive) in the assay on RXF 393. For the same compound, the GI50 with 786-0 was 14.5 µM (inactive); with MDA-MB-435, 15.1 µM (inactive).
For the compound `CN(C)c1cc2ccccc2oc1=O`, the GI50 in the assay with Hs-578T, in the assay with CCRF-CEM, in the assay with IGROV-1, with SNB-75, in the assay with MDA-N and with LOX IMVI was > 100 µM (inactive) each time. In addition, the GI50 with HOP-62, with M14, in the assay with SF-268, with OVCAR-4, in the assay on MCF7 and with NCI-H522 was > 100 µM (inactive) in each case. In addition, the GI50 with A498 was > 100 µM (inactive); in the assay with SK-MEL-2, > 100 µM (inactive); in the assay with PC-3 it was > 100 µM (inactive); in the assay with NCI-H23, > 100 µM (inactive); in the assay on T47D it was > 100 µM (inactive); in the assay with RXF 393 it was 20.6 µM (inactive). In addition, the GI50 in the assay with 786-0 and with MDA-MB-435 was > 100 µM (inactive) each time.
